Assay results: patent US5151442A, “Chroman derivative active on the central nervous system, their method of preparation and pharmaceutical compositions in which they are present” (Sanofi, priority 1988, dated 1992)
Structures can show the parent of a compound that is named as a salt.

Tested on: Female mice (Iffa Credo)
Experiment: forced swimming test according to Porsolt et al. (immobility times over 4 minutes, 2nd to 6th minute)
Format: in vivo
Settings: Mus musculus, ip, read-out: % inhibition (of the immobility times compared with control animals); for inhibition in vivo at 0.06 mg/kg: 0.06 mg/kg i.p.; for inhibition in vivo at 0.25 mg/kg: 0.25 mg/kg i.p.; for inhibition in vivo at 0.125 mg/kg: 0.125 mg/kg i.p.
Protocol: Thus the products according to the invention were subjected to the forced swimming test according to Porsolt et al. (Archives Internationales de Pharmacodynamie, 1977, 229, 327-336). Female mice (Iffa Credo) weighing 22-24 g are immersed for a period of 6 minutes in a beaker containing 800 ml of water at 24°±1° C. The immobility times are measured over 4 minutes from the 2nd to the 6th minute. The results are expressed as the percentage inhibition of the immobility times of the treated animals compared with the control animals.

| SMILES | inhibition in vivo at 0.06 mg/kg | inhibition in vivo at 0.25 mg/kg | inhibition in vivo at 0.125 mg/kg | inhibition in vivo at 1 mg/kg (1 mg/kg i.p.) |
| --- | --- | --- | --- | --- |
| CC1(C)Oc2ccc(C#N)cc2[C@@H](Nc2ccc(Cl)cc2)[C@@H]1O (relative stereo) [SR 44546, Trans-4-(4-chloroanilino)-6-cyano-2,2-dimethyl-3-hydroxychroman] | 16% | 44% | – | – |
| COC(=O)c1ccccc1N[C@@H]1c2cc(C#N)ccc2OC(C)(C)[C@H]1O (relative stereo) [SR 44588, Trans-6-cyano-2,2-dimethyl-3-hydroxy-4-(2-methoxycarbonylanilino)chroman] | 20% | – | 27% | – |
| CN(C)CCS[C@@H]1c2cc(C#N)ccc2OC(C)(C)[C@H]1O (relative stereo) [SR 44652, Trans-6-cyano-2,2-dimethyl-4-(2-dimethylaminoethylthio)-3-hydroxychroman hydrochloride] | 25% | – | 27% | – |
| CC1(C)Oc2ccc(C#N)cc2[C@@H](NS(=O)(=O)c2ccccc2C(F)(F)F)[C@@H]1O (relative stereo) [SR 44665, Trans-6-cyano-2,2-dimethyl-3-hydroxy-4-(2-trifluoromethylbenzene-1-sulfonamido)chroman] | 24% | – | – | – |
| CN(C)S(=O)(=O)N[C@@H]1c2cc(C#N)ccc2OC(C)(C)[C@H]1O (relative stereo) [SR 44666, Trans-6-cyano-2,2-dimethyl-4-(N,N-dimethylsulfamoylamino)-3-hydroxychroman] | 21% | – | – | 23% |
| CC1(C)Oc2ccc(C#N)cc2[C@@H](S(=O)(=O)C2CCCCC2)[C@@H]1O (relative stereo) [SR 44708, Trans-6-cyano-4-cyclohexylsulfonyl-2,2-dimethyl-3-hydroxychroman] | 21% | 37% | – | – |
| CC1(C)Oc2ccc(C#N)cc2[C@@H](Nc2ccccc2)[C@@H]1O (relative stereo) [SR 46142 A] | 40% | – | – | – |
| CC1(C)Oc2ccc(C#N)cc2[C@@H](Nc2ccc(F)cc2)[C@@H]1O (relative stereo) [SR 46143] | 27% | – | – | – |
| CC1(C)Oc2ccc(C#N)cc2[C@@H](Nc2ccc(C(F)(F)F)cc2)[C@@H]1O (relative stereo) [SR 46276] | 40% | – | – | – |
| CC1(C)C=C(Sc2ccc(Cl)cc2)c2cc(C#N)ccc2O1 [SR 44554, 4-(4-Chlorophenylthio)-6-cyano-2,2-dimethyl-2H-chromene] | 33% | – | – | – |
